# Assay results reported in patent publication US20260317325A1, “AMORPHOUS SUBSTANCE AND CRYSTAL OF DIOXOPIPERIDINE COMPOUND OR PHARMACEUTICALLY ACCEPTABLE SALT THEREOF, PREPARATION METHOD, AND USE” (JIANGSU HENGRUI PHARMACEUTICALS CO., LTD., priority 2023, published 2026).
# Structures can show the parent of a compound that is named as a salt. Where two headings read alike, the source gives them in different places.
# Key:
# [1] = Description: Long-term/accelerated stability study: Samples of the free-state form were sealed in aluminum foil bags and left to stand under 25° C./60% RH and 40° C./75% RH conditions to study its stability.
# Long-term/accelerated stability of salt forms: Samples were sealed in aluminum foil bags and left to stand under 25° C./60% RH and 40° C./75% RH conditions to study their stability.
# Remark: listed apart in the source
# [2] = high-temperature and high-humidity conditions
# Description: Influencing factor stability study: Samples of the free-state form were taken, spread in open containers, and left to stand under high-temperature (40° C. and 60° C.) and high-humidity (RH 75% and RH 92.5%) conditions for 30 days to study its stability.
# Influencing factor stability study of salt forms: Samples of the salt forms were taken, spread in open containers, and left to stand under high-temperature (40° C. and 60° C.) and high-humidity (RH 75%) conditions for 30 days to study their stability.
# [3] = long-term accelerated conditions for 6 months
structure (smiles),measurement,setting,value
C[C@H]1CC2(CCN(c3ccc(C(=O)N4CCC(CN5CCN(c6cccc(N[C@H]7CCC(=O)NC7=O)c6)CC5)CC4)cc3F)CC2)CN1c1ccc(C#N)c(Cl)c1 [Amorphous form of maleate],stability (in words),[1]; long-term conditions for 6 months,good chemical and physical stability
C[C@H]1CC2(CCN(c3ccc(C(=O)N4CCC(CN5CCN(c6cccc(N[C@H]7CCC(=O)NC7=O)c6)CC5)CC4)cc3F)CC2)CN1c1ccc(C#N)c(Cl)c1 [Crystal form B of succinate],stability (in words),[1]; [3],good chemical and physical stability
C[C@H]1CC2(CCN(c3ccc(C(=O)N4CCC(CN5CCN(c6cccc(N[C@H]7CCC(=O)NC7=O)c6)CC5)CC4)cc3F)CC2)CN1c1ccc(C#N)c(Cl)c1 [crystal form A of D-mandelate],stability (in words),"[1]; long-term accelerated conditions for 6 months, listed as crystal form A of mandelate",good chemical and physical stability
same,crystal form before and after DVS testing,XRPD,the crystal form did not change before and after DVS testing
same,desorption versus adsorption process,humidity 0% to 95% RH,the desorption process of the sample overlapped with its adsorption process
C[C@H]1CC2(CCN(c3ccc(C(=O)N4CCC(CN5CCN(c6cccc(N[C@H]7CCC(=O)NC7=O)c6)CC5)CC4)cc3F)CC2)CN1c1ccc(C#N)c(Cl)c1 [free-state amorphous form],stability (in words),[1]; [3],good physical and chemical stability
same,stability (in words),[2],good chemical stability
